Measured values reported in BindingDB's records for doi:10.1016/0960-894X(95)00507-P (Eli Lilly, 1995).

These compounds were tested against T1, Dimer of Gag-Pol polyprotein [489-587] (Human immunodeficiency virus 1, UniProt P12497) (assay: Protease Inhibition Assay). Settings: not given.
T1 construct: 489-587
Excerpt: In the presence of HIV-l protease, the substrate is rapidly cleaved into two parts. The biotinylated amino terminal fragment binds to the avidin Pandex beads while the FITC-containing carboxy1 terminal fragment is removed through the membrane.
`CC(C)[C@@H]1[C@H](OC(=O)N[C@@H](Cc2ccccc2)[C@H](O)CN2C[C@H]3CCCC[C@H]3CC2C(=O)NC(C)(C)C)CCS1(=O)=O` (stereo partly drawn) [(2R,3R)-1,1-dioxo-2-(propan-2-yl)--thiolan-3-yl N-[(2S,3R)-4-[(4aS,8aS)-3-(tert-butylcarbamoyl)-decahydroisoquinolin-2-yl]-3-hydroxy-1-phenylbutan-2-yl]carbamate] showed an IC50 of 4.3 nM. `CC(C)[C@H]1SCC[C@H]1OC(=O)N[C@@H](Cc1ccccc1)[C@H](O)CN1C[C@H]2CCS[C@H]2CC1C(=O)NC(C)(C)C` (stereo partly drawn) [(2R,3R)-2-(propan-2-yl)thiolan-3-yl N-[(2S,3R)-4-[(3aR,7aS)-6-(tert-butylcarbamoyl)-octahydrothieno[3,2-c]pyridin-5-yl]-3-hydroxy-1-phenylbutan-2-yl]carbamate] gave an IC50 of 0.26 nM. Compound `CC(C)[C@H]1[C@@H](OC(=O)N[C@@H](CSc2ccccc2)[C@H](O)CN2C[C@H]3CCS[C@H]3CC2C(=O)NC(C)(C)C)CCS1(=O)=O` (stereo partly drawn) [(2S,3S)-1,1-dioxo-2-(propan-2-yl)--thiolan-3-yl N-[(2R,3R)-4-[(3aR,7aS)-6-(tert-butylcarbamoyl)-octahydrothieno[3,2-c]pyridin-5-yl]-3-hydroxy-1-(phenylsulfanyl)butan-2-yl]carbamate] has an IC50 of 0.95 nM. With `CC(C)[C@@H]1SCC[C@@H]1OC(=O)N[C@@H](Cc1ccccc1)[C@H](O)CN1C[C@H]2CCS[C@H]2CC1C(=O)NC(C)(C)C` (some centres not stated) [hydroxyethylene isostere] the IC50 was 2.6 nM. With `CC(C)[C@@H]1[C@H](OC(=O)N[C@@H](CSc2ccccc2)[C@H](O)CN2C[C@H]3CCS[C@H]3CC2C(=O)NC(C)(C)C)CCS1(=O)=O` (some centres not stated) [hydroxyethylene isostere] the IC50 was 0.42 nM. `CC(C)[C@@H]1[C@H](OC(=O)N[C@@H](Cc2ccccc2)[C@H](O)CN2C[C@H]3CCS[C@H]3CC2C(=O)NC(C)(C)C)CCS1(=O)=O` (some centres not stated) [hydroxyethylene isostere] showed an IC50 of 1.3 nM. In the case of `CC(C)[C@H]1[C@@H](OC(=O)N[C@@H](Cc2ccccc2)[C@H](O)CN2C[C@H]3CCS[C@H]3CC2C(=O)NC(C)(C)C)CCS1(=O)=O` (some centres not stated) [hydroxyethylene isostere], the IC50 is reported as 2.6 nM.

Same assay, conditions: pH 5.5; 22 °C
With `C[C@@H]1OCC[C@@H]1OC(=O)N[C@@H](CSc1ccccc1)[C@H](O)CN1C[C@H]2CCS[C@H]2CC1C(=O)NC(C)(C)C` (stereo partly drawn) [(2S,3S)-2-methyloxolan-3-yl N-[(2R,3R)-4-[(3aR,7aS)-6-(tert-butylcarbamoyl)-octahydrothieno[3,2-c]pyridin-5-yl]-3-hydroxy-1-(phenylsulfanyl)butan-2-yl]carbamate] the IC50 was 0.28 nM. Work on `CC(C)(C)NC(=O)C1C[C@@H]2SCC[C@@H]2CN1C[C@@H](O)[C@H](CSc1ccccc1)NC(=O)O[C@@H]1CCS(=O)(=O)C1` (some centres not stated) [hydroxyethylene isostere] yielded an IC50 of 2 nM. `CC(C)(C)NC(=O)C1C[C@@H]2SCC[C@@H]2CN1C[C@@H](O)[C@H](CSc1ccccc1)NC(=O)O[C@H]1CCS(=O)(=O)C1` (some centres not stated) [hydroxyethylene isostere] showed an IC50 of 1.7 nM. With `CC(C)[C@H]1[C@@H](OC(=O)N[C@@H](Cc2ccccc2)[C@H](O)CN2C[C@H]3CCCC[C@H]3CC2C(=O)NC(C)(C)C)CCS1(=O)=O` (some centres not stated) [hydroxyethylene isostere] the IC50 was 8.1 nM. Work on `C[C@@H]1[C@@H](OC(=O)N[C@@H](CSc2ccccc2)[C@H](O)CN2C[C@H]3CCS[C@H]3CC2C(=O)NC(C)(C)C)CCS1(=O)=O` (some centres not stated) [hydroxyethylene isostere] yielded an IC50 of 5.2 nM. `C[C@@H]1[C@H](OC(=O)N[C@@H](CSc2ccccc2)[C@H](O)CN2C[C@H]3CCS[C@H]3CC2C(=O)NC(C)(C)C)CCS1(=O)=O` (some centres not stated) [hydroxyethylene isostere] showed an IC50 of 0.75 nM. In the case of `C[C@@H]1[C@H](OC(=O)N[C@@H](Cc2ccccc2)[C@H](O)CN2C[C@H]3CCCC[C@H]3CC2C(=O)NC(C)(C)C)CCS1(=O)=O` (some centres not stated) [hydroxyethylene isostere], the IC50 is reported as 10 nM. Compound `C[C@H]1OCC[C@H]1OC(=O)N[C@@H](CSc1ccccc1)[C@H](O)CN1C[C@H]2CCS[C@H]2CC1C(=O)NC(C)(C)C` (some centres not stated) [hydroxyethylene isostere] has an IC50 of 3 nM. In the case of `C[C@H]1[C@@H](OC(=O)N[C@@H](CSc2ccccc2)[C@H](O)CN2C[C@H]3CCS[C@H]3CC2C(=O)NC(C)(C)C)CCS1(=O)=O` (some centres not stated) [hydroxyethylene isostere], the IC50 is reported as 0.4 nM. `C[C@H]1[C@H](OC(=O)N[C@@H](CSc2ccccc2)[C@H](O)CN2C[C@H]3CCS[C@H]3CC2C(=O)NC(C)(C)C)CCS1(=O)=O` (some centres not stated) [hydroxyethylene isostere] gave an IC50 of 1.4 nM.
